Data reported in patent US20050245399A1, “Pyrazole derivatives as herbicidal compositions containing them” (ISHIHARA SANGYO KAISHA, LTD., priority 2004, published 2005).

Assays:
Format in all cases: in vivo
[1] = test system: wheat (Triticum aestivum L.): TRZAX; experiment: Test Example 1 pre-emergence herbicidal activity, TRZAX; conditions: Rate 63 g a.i./ha, visually observed 20th to 23rd day after application
Procedure, shortened: (§1)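 Compound was delivered by small sprayer to sown upland soil one day after sowing, before emergence, at 500 L/ha spray volume. Plant growth was assessed visually around 3 weeks later (days 20–23), 100% denoting complete kill.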

[2] = test system: soybean (Glycine max Merr.), GLXMA; experiment: Test Example 2 post-emergence (foliage treatment) herbicidal activity, GLXMA; conditions: 63 g a.i./ha
Procedure, shortened: (§2)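 A small sprayer delivered the diluted WP or EC formulation (500 L/ha water, 0.1% v/v spreader) over emerged seedlings in upland soil pots. Damage relative to untreated plants was graded visually from 0 to 100% three weeks or so later (days 20-23).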

[3] = test system: redroot pigweed (Amaranthus retroflexus L.), AMARE; experiment: Test Example 2 post-emergence (foliage treatment) herbicidal activity, AMARE; conditions: 63 g a.i./ha
Procedure, shortened: (§3)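 Greenhouse pot test with upland field soil. Treatment: foliage spray, active ingredient at a predetermined amount, 500 L/ha, spreader 0.1% (v/v); leaf stage 0.1-1.5 (AMARE), 1.1-2.1 (ECHCG), 1.0-2.0 (DIGSA), 1.0-2 (ORYSA). Endpoint: visual % control, d20-23.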

[4] = test system: prickly sida (Sida spinosa L.), SIDSP; experiment: Test Example 2 post-emergence (foliage treatment) herbicidal activity, SIDSP; conditions: 63 g a.i./ha
Procedure, shortened: as §2

[5] = test system: redroot pigweed (Amaranthus retroflexus L.): AMARE; experiment: Test Example 1 pre-emergence herbicidal activity, AMARE; conditions: Rate 63 g a.i./ha, visually observed 20th to 23rd day after application
Procedure, shortened: as §1

[6] = test system: corn (Zea mays L.): ZEAMX; experiment: Test Example 1 pre-emergence herbicidal activity, ZEAMX; conditions: Rate 63 g a.i./ha, visually observed 20th to 23rd day after application
Procedure, shortened: as §1

[7] = test system: common cocklebur (Xanthium strumarium L.), XANST; experiment: Test Example 2 post-emergence (foliage treatment) herbicidal activity, XANST; conditions: 63 g a.i./ha
Source text: Upland field soil was put into a 1/170,000 ha pot, and seeds of various plants were sown. Then, when the plants reached predetermined leaf stages {1. barnyardgrass (Echinochloa crus-galli L.), ECHCG: 1.1-2.1 leaf stage, 2. crabgrass (Digitaria sanguinalis L.), DIGSA: 1.0-2.0 leaf stage, 3. green foxtail (Setaria viridis L.), SETVI: 1.0-2.2 leaf stage, 4. redroot pigweed (Amaranthus retroflexus L.), AMARE: 0.1-1.5 leaf stage, 5. prickly sida (Sida spinosa L.), SIDSP: 0.1-0.6 leaf stage, 6. velvetleaf (Abutilon theophrasti), ABUTH: 0.1-0.6 leaf stage, 7. common cocklebur (Xanthium strumarium L.), XANST: 0.1 leaf stage, 8. rice (Oryza sativa L.), ORYSA; 1.0-2 leaf stage, 9. wheat (Triticum aestivum L.), TRZAX: 2.3-3.5 leaf stage, 10. corn (Zea mays L.), ZEAMXN 2.1-2.6 leaf stage, 11. soybean (Glycine max Merr.), GLXMA: primary leaf stage}, a wettable powder or emulsifiable concentrate having the compound of the present invention formulated in accordance with a usual formulation method, was weighed so that the active ingredient would be a predetermined amount, and diluted with water in an amount of 500 L/ha. To the diluted solution, 0.1% (v/v) of an agricultural spreader was added. The herbicide adjusted was applied by a small size sprayer for foliage treatment. On the 20th to 23rd day after the application of the herbicide, the growth of the respective plants was visually observed, and the herbicidal effects were evaluated by growth controlling degrees (%) ranging from 0 (equivalent to the untreated control) to 100 (complete kill), whereby the results shown in Table 5, were obtained. Compound Nos. in Table 5 correspond to Compound Nos. in Table 1 and 2 given hereinbefore.

[8] = test system: corn (Zea mays L.), ZEAMX; experiment: Test Example 2 post-emergence (foliage treatment) herbicidal activity, ZEAMX; conditions: 63 g a.i./ha
Procedure, shortened: as §2

[9] = test system: japanese ribbon wapato (Sagittaria pygmaea: SA GPY); experiment: Test Example 3 water application herbicidal activity (paddy), SAGPY; conditions: 63 g a.i./ha, water application under submerged condition, tubers planted, visually observed 14th day after application; 0 = untreated control, 100 = complete kill
Procedure, shortened: (§4)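 Submerged application in flooded paddy soil (3–4 cm water); weeds treated at 0.5-leaf stage, transplanted rice 4 d after transplanting. Scored visually as % growth control: weeds at 14 d, rice at 21 d.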

[10] = test system: wheat (Triticum aestivum L.), TRZAX; experiment: Test Example 2 post-emergence (foliage treatment) herbicidal activity, TRZAX; conditions: 63 g a.i./ha
Procedure, shortened: as §2

[11] = test system: crabgrass (Digitaria sanguinalis L.), DIGSA; experiment: Test Example 2 post-emergence (foliage treatment) herbicidal activity, DIGSA; conditions: 63 g a.i./ha
Procedure, shortened: as §3

[12] = test system: barnyardgrass (Echinochiloa oryzicola: ECHOR); experiment: Test Example 3 water application herbicidal activity (paddy), ECHOR; conditions: 63 g a.i./ha, water application under submerged condition at 0.5 leaf stage, visually observed 14th day after application; 0 = untreated control, 100 = complete kill
Procedure, shortened: as §4

[13] = test system: green foxtail (Setaria viridis L.), SETVI; experiment: Test Example 2 post-emergence (foliage treatment) herbicidal activity, SETVI; conditions: 63 g a.i./ha
Procedure, shortened: as §2

[14] = test system: common cocklebur (Xanthium strumarium L.): XANST; experiment: Test Example 1 pre-emergence herbicidal activity, XANST; conditions: Rate 63 g a.i./ha, visually observed 20th to 23rd day after application
Source text: Upland field soil was put into a 1/170,000 ha pot, and seeds of various plants {1. barnyardgrass (Echinochloa crus-galli L.): ECHCG, 2. crabgrass (Digitaria sanguinalis L.): DIGSA, 3. green foxtail (Setaria viridis L.): SETVI, 4. redroot pigweed (Amaranthus retroflexus L.): AMARE, 5. prickly sida (Sida spinosa L.): SEDSP, 6. velvetleaf (Abutilon theophrasti): ABUTH, 7. common cocklebur (Xanthium strumarium L.): XANST, 8. rice (Oryza sativa L.): ORYSA, 9. wheat (Triticum aestivum L.): TRZAX, 10. corn (Zea mays L.): ZEAMX, 11. soybean (Glycine max Merr.): GLXMA} were sown. Then, one day after the sowing, a wettable powder or emulsifiable concentrate having the compound of the present invention formulated in accordance with a usual formulation method, was weighed so that the active ingredient would be a predetermined amount and diluted with water in an amount of 500 L/ha. The herbicide adjusted was applied by a small size sprayer for preemergence treatment. On the 20th to 23rd day after the application of the herbicide, the growth of the respective plants was visually observed, and the herbicidal effects were evaluated by growth controlling degrees (%) ranging from 0 (equivalent to the untreated control) to 100 (complete kill), whereby the results shown in Table 4, were obtained. Compound Nos. in Table 4 correspond to Compound Nos. in Table 1 and 2 given hereinbefore.

| SMILES | Pre-emergence Herbicidal Activity TRZAX (growth controlling degree) [1] [%] | growth controlling degree, GLXMA [2] [%] | growth controlling degree, AMARE [3] [%] | growth controlling degree, SIDSP [4] [%] | Pre-emergence Herbicidal Activity AMARE (growth controlling degree) [5] [%] | Pre-emergence Herbicidal Activity ZEAMX (growth controlling degree) [6] [%] | growth controlling degree, XANST [7] [%] | growth controlling degree, ZEAMX [8] [%] | growth controlling degrees (%) SAGPY [9] [%] | growth controlling degree, TRZAX [10] [%] | growth controlling degree, DIGSP [11] [%] | growth controlling degrees (%) ECHOR [12] [%] | growth controlling degree, SETVI [13] [%] | Pre-emergence Herbicidal Activity XANST (growth controlling degree) [14] [%] |
| --- | --- | --- | --- | --- | --- | --- | --- | --- | --- | --- | --- | --- | --- | --- |
| COc1c(Cl)cc(F)c(-c2nn(C)c(OC(F)F)c2Cl)c1N(C)C=O [Compound 1-6] | 20 | 90 | 100 | 100 | 100 | 30 | 95 | 30 | 30 | 30 | 70 | 90 | 100 |  |
| COc1c(Cl)cc(F)c(-c2nn(C)c(OC(F)F)c2Cl)c1NC(=O)C=C(C)C [Compound 1-9] | 40 | 90 | 100 | 100 | 100 | 70 | 70 | 70 | 100 | 40 | 98 | 100 | 100 | 70 |
| COc1c(Cl)cc(F)c(-c2nn(C)c(OC(F)F)c2Cl)c1N(C=O)C1CCCC1 [Compound 1-10] | 40 | 50 | 100 | 100 | 100 | 40 | 100 | 40 | 40 | 40 | 60 | 100 | 100 | 100 |
| COc1c(Cl)cc(F)c(-c2nn(C)c(OC(F)F)c2Cl)c1N(C(=O)C=C(C)C)C(=O)C=C(C)C [Compound 1-11] | 20 | 50 | 100 | 100 | 100 | 30 | 30 | 30 | 40 | 20 | 40 | 100 | 100 | 30 |
| COc1c(Cl)cc(F)c(-c2nn(C)c(OC(F)F)c2Cl)c1N(C=O)CC(=O)c1ccccc1 [Compound 1-12] | 20 | 40 | 100 | 100 | 100 | 10 | 50 | 10 | 30 | 20 | 30 | 95 | 95 | 50 |
| CNc1c(OC)c(Cl)cc(F)c1-c1nn(C)c(OC(F)F)c1Cl [Compound 1-58] | 10 | 95 | 100 | 100 | 100 | 0 | 100 | 100 | 100 | 60 | 100 | 100 | 100 |  |
| COc1c(Cl)cc(F)c(-c2nn(C)c(OC(F)F)c2Cl)c1NC(C)C [Compound 1-59] | 30 | 95 | 100 | 100 | 100 | 10 | 100 | 80 | 60 | 50 | 98 | 100 | 100 |  |
| COc1c(Cl)cc(F)c(-c2nn(C)c(OC(F)F)c2Cl)c1NC1CCCC1 [Compound 1-60] | 0 | 70 | 100 | 100 | 95 | 0 | 100 | 50 | 60 | 40 | 80 | 100 | 100 |  |
